From patent US6818667B2, “Eurotinones, and derivatives thereof, processes for preparing them, and their use” (Aventis Pharma Deutschland GmbH, priority 2001, dated 2004)

Biological target: KDR kinase (VEGF receptor) (Homo sapiens, UniProt P35968)
Test: KDR kinase activity assay (FlashPlate, 33P-ATP phosphorylation of peptide substrate PLCγ1)
Assay type: biochemical
Conditions: purified enzyme, 5 μM cold ATP, pH 7.4, RT 1 h
Procedure: The tyrosine kinase receptor KDR is the test target. KDR plays a key role in the growth of endothelium and in angiogenesis and is consequently also involved in the development of tumors. KDR is consequently an important therapeutic target molecule for cancer diseases and other proliferative diseases. In the test, the activity of the KDR kinase is measured on the basis of the phosphorylation of a specific peptide substrate.
The KDR kinase was determined using purified enzyme in 384-well microtiter plates (Coated FlashPlates, NEN Life Science). The enzyme activities were determined by means of phosphorylating a specific peptide substrate. A previously prepared series of dilutions of the eurotinones having concentrations of 100, 50, 25, 12.5, 6.25, 3.125, 1.5625, 0.7813, 0.3906, 0.195, 0.094, 0.047 and 0 μM were pipetted, in the corresponding order, into the experimental assays. The reaction mixture (radioactively labeled ATP, buffer solution at pH 7.4 and enzyme solutions) was then added and the whole was incubated at RT for 1 h.
Enzyme: KDR kinase (VEGF receptor)
50 mM MOPS, pH7.4, 10 mM MgCl2, 2 mM DTT, 2.5 mM EDTA,
ATP solution: 25μCi of ^33P-γ-ATP/ml and 12.5 μM cold ATP
KDR enzyme solution: 3.5 μg/ml in kinase buffer
384-well FlashPlates were coated, at […] and overnight, with 60 μl (1.2 μg/well) of the peptide substrate and then washed 3×with in each case 80 μl of PBS. The plates which had been coated in this way can be stored for a relatively short time at 4° C. and for a longer period at −20° C. […]
The plates were subsequently washed three times with 75 μl of washing solution in each case and the radioactivity is measured over 30 seconds in a MicroBeta counter (Wallac). […]
The activity of the KDR kinase was measured by way of the incorporation of radioactive phosphate from ATP into the substrate, and the inhibitory effect of the eurotinone (IC50) was calculated from this incorporation.
The inhibition was calculated as: […]

KDR kinase (VEGF receptor), sequence (P35968 20-1356): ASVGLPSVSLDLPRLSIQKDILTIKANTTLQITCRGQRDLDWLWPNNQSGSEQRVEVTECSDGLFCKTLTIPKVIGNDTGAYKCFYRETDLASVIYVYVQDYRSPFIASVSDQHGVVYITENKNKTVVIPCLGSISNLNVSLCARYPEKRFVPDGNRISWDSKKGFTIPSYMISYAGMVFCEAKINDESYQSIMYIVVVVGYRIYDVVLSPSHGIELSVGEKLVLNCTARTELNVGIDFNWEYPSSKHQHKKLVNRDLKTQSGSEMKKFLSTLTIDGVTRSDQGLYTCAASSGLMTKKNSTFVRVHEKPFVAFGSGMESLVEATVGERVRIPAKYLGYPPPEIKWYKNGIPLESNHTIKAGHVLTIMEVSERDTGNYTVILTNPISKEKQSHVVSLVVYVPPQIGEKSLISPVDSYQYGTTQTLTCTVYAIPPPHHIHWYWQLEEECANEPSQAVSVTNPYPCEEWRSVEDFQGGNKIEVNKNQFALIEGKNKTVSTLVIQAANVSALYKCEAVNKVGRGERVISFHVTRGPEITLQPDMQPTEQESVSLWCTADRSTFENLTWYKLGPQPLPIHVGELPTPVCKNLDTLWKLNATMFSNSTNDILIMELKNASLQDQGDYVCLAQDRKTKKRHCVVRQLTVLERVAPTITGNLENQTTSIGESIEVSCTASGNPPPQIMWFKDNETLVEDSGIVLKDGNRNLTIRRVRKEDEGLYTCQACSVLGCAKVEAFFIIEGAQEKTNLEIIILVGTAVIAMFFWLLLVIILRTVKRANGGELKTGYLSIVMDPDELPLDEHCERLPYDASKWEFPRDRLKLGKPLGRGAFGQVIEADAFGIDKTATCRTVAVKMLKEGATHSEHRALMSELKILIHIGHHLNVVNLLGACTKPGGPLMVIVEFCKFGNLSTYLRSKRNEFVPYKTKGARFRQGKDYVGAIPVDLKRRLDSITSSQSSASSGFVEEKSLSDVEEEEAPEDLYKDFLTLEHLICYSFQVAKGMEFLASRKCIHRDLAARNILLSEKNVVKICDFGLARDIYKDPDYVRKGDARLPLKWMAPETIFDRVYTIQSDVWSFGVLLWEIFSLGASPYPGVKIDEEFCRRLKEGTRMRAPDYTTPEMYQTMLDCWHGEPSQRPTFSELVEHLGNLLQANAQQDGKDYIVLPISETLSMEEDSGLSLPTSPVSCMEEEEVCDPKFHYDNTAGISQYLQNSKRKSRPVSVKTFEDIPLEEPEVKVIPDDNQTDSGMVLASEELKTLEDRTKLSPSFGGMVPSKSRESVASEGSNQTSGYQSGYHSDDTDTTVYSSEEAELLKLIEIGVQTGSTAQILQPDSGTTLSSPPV

IC50 [µM] | Compound
22 | Cc1cc(O)c2c(c1O)Cc1cc(O)cc(O)c1OC2=O [eurotinone (compound 1), eurotinone]
18 | COc1cc(O)cc2c1OC(=O)c1c(O)cc(C)c(O)c1C2 [2-methyleurotinone (compound 3), 2-methyleurotinone]
155 | COc1cc(O)cc2c1OC(=O)c1c(OC)cc(C)c(O)c1C2 [2,12-dimethyleurotinone (compound 2), 2,12-dimethyleurotinone]
